The record followed here is patent US20190388411A1, “NSAID ADMINISTRATION AND RELATED COMPOSITIONS, METHODS AND SYSTEMS” (Alfasigma S.p.A., priority 2013, published 2019).

Structures are written as SMILES.

Holding throughout (type): in vivo, male Albino Sprague Dawley rats
Data set [1] can be described thus: Blood hemoglobin levels in indomethacin-induced enteropathy in rats (Example 16). As for the experimental part: Twenty four hours after the last dose, the rats were euthanized and samples of blood were collected for the assessment of hemoglobin levels.
Hemoglobin analysis was performed on rat blood samples collected as reported above, by means of Quantichrom Hemoglobin assay kit (Bioassay Systems, Hayward, Calif., USA) and expressed as g/dL.

The nature of data set [2]: Mortality in indomethacin-induced enteropathy in rats (Example 16). The note with it: indomethacin […] BID + rifaximin product 50 mg/kg BID, 14 days. As for the experimental part: A percentage of 100% of survivors was also recorded in vehicle control group (Group 1).
For data set [3], the system named is indomethacin - induced microscopic intestinal damage. The experiment in a line: Histological analysis of intestinal damage in jejunum and ileum (Example 16). The note with it: rats. As for the experimental part: (§1) The whole intestinal tract was removed and processed for the evaluation of tissue myeloperoxidase (MPO) levels and histological analysis of intestinal damage in jejunum and ileum.
Pharmacol. Ther. 1993; 7:29-39. Upon removal, the whole intestinal tract was immediately injected with 10% formalin and left in the same fixative solution. After 30 min, it was opened along the anti-mesenteric border, cleaned of fecal content and fixed in 10% formalin for 24 h. Tissue samples were taken as described below and the full length of small intestine was measured.
In particular the following tissue samples were taken • Ileum: 1 cm of tissue proximal to the ileo-cecal valve was discarded and two specimens of 1.5-2 cm of ileum were taken at this edge as well as 5 cm away from the first ileum sample • Proximal jejunum: two specimens of 1.5-2 cm were taken 5 cm away from both the proximal and distal end of the 37.5% of the small intestine total length. • Distal jejunum: two specimens of 1.5-2 cm were taken 5 cm away from both the proximal and distal end of 81% of small intestine's total length.
After fixation, tissues were embedded into paraffin blocks and were cut into consecutive serial 3-μm sections for staining with hematoxylin and eosin. Histological damage was assessed by two observers, blind to the treatment. Each section was given a score of lesion (Type 1 to 3) (TABLE 23).
Quantitative assessment of histological damage was expressed as percentage of the total length of lesions over the total length of the histological section.

The test system of data set [4] is myeloperoxidase (MPO). Description: Tissue myeloperoxidase (MPO) levels in jejunum and ileum, ELISA (Example 16). As for the experimental part:
as §1
Specimens of intestinal tissues (30 mg) were homogenized on ice with a polytron homogenizer (QIAGEN, Milan, Italy) in 0.6 mL of ice-cold lysis buffer (200 mM NaCl, 5 mM EDTA, 10 mM Tris, 10% glycerine, 1 mM PMSF, 1 μg/ml leupeptin and 28 μg/ml aprotinin (pH 7.4). The homogenate was centrifuged 2 times at 4° C. for 15 min at 1.500 g. The supernatant was diluted 1:5 and used for determination of MPO concentration by means of enzyme-linked immunosorbent assay (ELISA) (Hycult Biotech, Uden, Netherlands). All samples were assayed within 2 day after collection. The results were expressed as nanograms of MPO per milligram of intestinal tissue.

Setting [5] is: indomethacin […] BID 14 days, alone or with gastroresistant rifaximin 25 and 50 mg/kg BID or rifaximin polymorph alpha 50 mg/kg BID.
[6] abbreviates: rats, indomethacin […] BID 14 days, alone or with gastroresistant rifaximin 25 or 50 mg/kg BID or rifaximin polymorph alpha 50 mg/kg BID.

`CO[C@H]1/C=C/O[C@@]2(C)Oc3c(C)c(O)c4c(O)c(c5c(nc6cc(C)ccn65)c4c3C2=O)NC(=O)/C(C)=C\C=C\[C@H](C)[C@H](O)[C@@H](C)[C@@H](O)[C@@H](C)[C@H](OC(C)=O)[C@@H]1C` [rifaximin polymorph alpha, rifaximin]: the “Blood hemoglobin concentration (in words)” value in data set [1] (indomethacin […] BID 14 days, alone or with gastroresistant rifaximin at both doses or rifaximin polymorph alpha 50 mg/kg BID) is reported as “these levels were decreased”. In data set [2], the “Mortality (%)” value is on record as “not associated with deaths”. Further, in data set [3] (setting [5]), the “Ileum type 1 lesions, microscopic assessment (in words)” value is “significant reduction of Type 1 lesions”; the “Ileum type 2 lesions, microscopic assessment (in words)” value is “no significant differences were appreciated on the occurrence of type 2 lesions”; the “Jejunum type 1 lesions, microscopic assessment (in words)” value is “reduced the degree of type 1 lesions, although mean values were not significantly different”. Besides, in data set [3] (with indomethacin […] BID 14 days, gastroresistant rifaximin 25 and 50 mg/kg BID, rifaximin polymorph alpha 50 mg/kg BID), the “Lesions / histological damage in ileum and jejunum, overall (in words)” value is listed as “effective in the reduction of lesions”. Moreover, the “Reduction of MPO levels in respect to animals which did not receive rifaximin” value in data set [4] (rats treated with indomethacin, 14 days) is recorded as “about 22%”. Moreover, in data set [4] (setting [6]), the “Ileum tissue MPO levels (in words)” value is given as “blunted” and the “Jejunum tissue MPO levels (in words)” value is “did not exert any relevant effect”.
As for `CO[C@H]1/C=C/O[C@@]2(C)Oc3c(C)c(O)c4c(O)c(c5c(nc6cc(C)ccn65)c4c3C2=O)NC(=O)/C(C)=C\C=C\[C@H](C)[C@H](O)[C@@H](C)[C@@H](O)[C@@H](C)[C@H](OC(C)=O)[C@@H]1C` [rifaximin, (2S, 16Z, 18E, 20S, 21S, 22R, 23R, 24R, 25S, 26S, 27S, 28E)-5,6, 21, 23, 25 pentahydroxy-27-methoxy-2,4, 11, 16, 20, 22, 24, 26-octamethyl-2,7-(epoxypentadeca-(1,11,13)trienimino) benzofuro (4,5-e) pyrido (1,2,-a benzimidazole-1,15(2H)dione, 25-acetate)], the “Reduction in hemoglobin values” in data set [1] (end of the treatment period (14 days), in respect to the control) was determined as 12%. Moreover, in data set [2], the “Mortality (%)” value was “do not displayed death”. Also, the “Jejunum type 2 lesions, microscopic assessment (in words)” value in data set [3] (setting [5]) is “significantly reduced Type 2 lesions”.
